Experimental data: patent publication US11230526B1, “Cylcoalkenyl derivatives useful as agonists of the GPR120 and/or GPR40 receptors” (Janssen Pharmaceutica NV, priority 2018, dated 2022)

Experiments:
[1] = molecular target: T1, Human GPR120 short form (Homo sapiens, UniProt Q5NUL3); test: Human GPR120 calcium flux assay, Procedure Calcium B (4200 cells/well); type: cell-based
T1 construct: expressed in transfected cells
T1 sequence (Q5NUL3 1-361): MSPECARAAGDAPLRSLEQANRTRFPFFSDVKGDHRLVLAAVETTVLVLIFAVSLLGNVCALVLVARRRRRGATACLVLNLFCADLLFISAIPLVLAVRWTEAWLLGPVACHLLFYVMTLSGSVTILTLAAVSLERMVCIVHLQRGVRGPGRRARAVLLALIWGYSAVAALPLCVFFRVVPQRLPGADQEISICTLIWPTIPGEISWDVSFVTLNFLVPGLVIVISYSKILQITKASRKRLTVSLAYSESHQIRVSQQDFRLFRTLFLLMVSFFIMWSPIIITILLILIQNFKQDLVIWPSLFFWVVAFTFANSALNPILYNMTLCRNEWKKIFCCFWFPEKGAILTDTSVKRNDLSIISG
Procedure, shortened: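 HEK293 cells stably expressing human GPR120 (NM_001195755.1), 4200 cells/well, starved 1 h and loaded with Fluo-4 NW plus probenecid. Ligand-evoked calcium flux read on FLIPR for 300 s after a 10 s baseline. RFU = Fmax−Fmin; EC50 from four-parameter concentration-response fit.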

[2] = molecular target: T2, human GPR40 (Homo sapiens, UniProt O14842); test: GPR40 calcium flux assay, human GPR40; type: cell-based; settings: HEK293 cells stably expressing GPR40; table does not say human or rat
T2 construct: expressed in transfected cells
Procedure, shortened: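 Cells preincubated 1 h at 37° C. in HBSS, 20 mM HEPES, 0.1% BSA, then Fluo 8 calcium dye 30 min at 37° C. and 15 min at room temperature.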

T2 sequence (O14842 whole entry): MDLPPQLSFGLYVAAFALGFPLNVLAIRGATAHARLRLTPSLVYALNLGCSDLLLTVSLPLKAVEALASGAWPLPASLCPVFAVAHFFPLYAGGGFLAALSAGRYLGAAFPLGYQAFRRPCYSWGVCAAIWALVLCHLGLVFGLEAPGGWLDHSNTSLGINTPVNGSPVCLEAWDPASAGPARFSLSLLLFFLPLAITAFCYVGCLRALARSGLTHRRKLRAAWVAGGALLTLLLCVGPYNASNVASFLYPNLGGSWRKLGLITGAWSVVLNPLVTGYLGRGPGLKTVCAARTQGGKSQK

SMILES	EC50 [1] [nM]	EC50 [2] [nM]
COC1CCC(c2ccccc2C)=C(COc2ccc(CCC(=O)O)cc2)C1 (centres unmarked) [Compound 575, 3-[4-[[5-methoxy-2-(o-tolyl)cyclohexen-1-yl]methoxy]phenyl]Propanoic Acid]	> 5000	> 5000
COC1CCC(c2ccccc2C)=C(COc2ccc(CCC(=O)O)c(C(F)(F)F)c2)C1 (centres unmarked) [Compound 576, 3-[4-[[5-methoxy-2-(o-tolyl)cyclohexen-1-yl]methoxy]-2-(trifluoromethyl)phenyl]Propanoic Acid]	> 5000	1570
CC(C)CC1=C(COc2ccc(CCC(=O)O)cc2)CCCC1 [Compound 578, 3-[4-[(2-isobutylcyclohexen-1-yl)methoxy]phenyl]Propanoic Acid]	1780	2140
CC(C)CC1=C(COc2ccc(CCC(=O)O)c(Cl)c2)CCCC1 [Compound 580, 3-[2-chloro-4-[(2-isobutylcyclohexen-1-yl)methoxy]phenyl]Propanoic Acid]	1330	202
O=C(O)CCc1ccc(OCC2=C(Cc3ccccc3)CCCC2)cc1 [Compound 581, 3-[4-[(2-benzylcyclohexen-1-yl)methoxy]phenyl]Propanoic Acid]	2110	591
CC(C)C1=C(COc2ccc(CCC(=O)O)cc2)CCCC1 [Compound 585, 3-[4-[(2-isopropylcyclohexen-1-yl)methoxy]phenyl]Propanoic Acid]	1650	2420
CCCC1=C(COc2ccc(CCC(=O)O)cc2)CCCC1 [Compound 589, 3-[4-[(2-propylcyclohexen-1-yl)methoxy]phenyl]Propanoic Acid]	3150	2390
CCCC1=C(COc2ccc(CCC(=O)O)c(C(F)(F)F)c2)CCCC1 [Compound 590, 3-[4-[(2-propylcyclohexen-1-yl)methoxy]-2-(trifluoromethyl)phenyl]Propanoic Acid]	1360	316

Now those with a lower EC50 [1], led by results:

EC50 [1] [nM]	EC50 [2] [nM]	SMILES
1100	3010	COC1CCC(c2ccc(C)cc2)=C(COc2ccc(CCC(=O)O)c(C(F)(F)F)c2)C1 (centres unmarked) [Compound 577, 3-[4-[[5-methoxy-2-(p-tolyl)cyclohexen-1-yl]methoxy]-2-(trifluoromethyl)phenyl]Propanoic Acid]
585	75	CC(C)CC1=C(COc2ccc(CCC(=O)O)c(C(F)(F)F)c2)CCCC1 [Compound 579, 3-[4-[(2-isobutylcyclohexen-1-yl)methoxy]-2-(trifluoromethyl)phenyl]Propanoic Acid]
1210	77	O=C(O)CCc1ccc(OCC2=C(Cc3ccccc3)CCCC2)cc1Cl [Compound 582, 3-[4-[(2-benzylcyclohexen-1-yl)methoxy]-2-chloro-phenyl]Propanoic Acid]
765	294	CCCCC1=C(COc2ccc(CCC(=O)O)c(Cl)c2)CCCC1 [Compound 583, 3-[4-[(2-butylcyclohexen-1-yl)methoxy]-2-chloro-phenyl]Propanoic Acid]
756	91	O=C(O)CCc1ccc(OCC2=C(Cc3ccccc3)CCCC2)cc1C(F)(F)F [Compound 584, 3-[4-[(2-benzylcyclohexen-1-yl)methoxy]-2-(trifluoromethyl)phenyl]Propanoic Acid]
908	52	CC(C)C1=C(COc2ccc(CCC(=O)O)c(C(F)(F)F)c2)CCCC1 [Compound 586, 3-[4-[(2-isopropylcyclohexen-1-yl)methoxy]-2-(trifluoromethyl)phenyl]Propanoic Acid]
1140	99	CC(C)C1=C(COc2ccc(CCC(=O)O)c(Cl)c2)CCCC1 [Compound 587, 3-[2-chloro-4-[(2-isopropylcyclohexen-1-yl)methoxy]phenyl]Propanoic Acid]
1140	1920	CCCCC1=C(COc2ccc(CCC(=O)O)cc2)CCCC1 [Compound 588, 3-[4-[(2-butylcyclohexen-1-yl)methoxy]phenyl]Propanoic Acid]
